# Target: ASK1 (Homo sapiens (Human), UniProt Q99683)
# Assay: HTRF KinEASE Assay (TR-FRET, STK3 peptide substrate), inhibition of ASK1
# Assay type: biochemical
# Conditions: 5 nM ASK1 kinase, 1 μM STK3 peptide substrate, 100 μM ATP, 3 hours; compound 0 to 10 μM
# Procedure: Assay HTRF® KinEASE™ Assay
# ASK1 was purchased from Thermofisher (Catalogue # PV4011), ATP was purchased from Sigma (Catalogue # A7699), HI-TRF® KinEASE™ Assay System was obtained from Cisbio (Bedford, Mass.). […] HTRF® KinEASE™-STK is a generic method for measuring serine/threonine kinase activities using a time-resolved fluorescence resonance energy transfer (TR-FRET) immunoassay. […] 100 Um ATP is added to start kinase reaction and incubated for 3 hours. The STK3-antibody labeled with Eu^3+-Cryptate and 125 Nm streptavidin-XL665 are mixed in a single addition with stop reagents provided by the Cisbio kit used to stop the kinase reaction. […] The resulting TR-FRET is proportional to the phosphorylation level. Staurosporine was used as the positive control. IC50 was determined by Xlfit 5.3.
# By using above method, the inhibition of ASK1 was evaluated for the compounds of Formula (I).
# ASK1, sequence (Q99683 whole entry): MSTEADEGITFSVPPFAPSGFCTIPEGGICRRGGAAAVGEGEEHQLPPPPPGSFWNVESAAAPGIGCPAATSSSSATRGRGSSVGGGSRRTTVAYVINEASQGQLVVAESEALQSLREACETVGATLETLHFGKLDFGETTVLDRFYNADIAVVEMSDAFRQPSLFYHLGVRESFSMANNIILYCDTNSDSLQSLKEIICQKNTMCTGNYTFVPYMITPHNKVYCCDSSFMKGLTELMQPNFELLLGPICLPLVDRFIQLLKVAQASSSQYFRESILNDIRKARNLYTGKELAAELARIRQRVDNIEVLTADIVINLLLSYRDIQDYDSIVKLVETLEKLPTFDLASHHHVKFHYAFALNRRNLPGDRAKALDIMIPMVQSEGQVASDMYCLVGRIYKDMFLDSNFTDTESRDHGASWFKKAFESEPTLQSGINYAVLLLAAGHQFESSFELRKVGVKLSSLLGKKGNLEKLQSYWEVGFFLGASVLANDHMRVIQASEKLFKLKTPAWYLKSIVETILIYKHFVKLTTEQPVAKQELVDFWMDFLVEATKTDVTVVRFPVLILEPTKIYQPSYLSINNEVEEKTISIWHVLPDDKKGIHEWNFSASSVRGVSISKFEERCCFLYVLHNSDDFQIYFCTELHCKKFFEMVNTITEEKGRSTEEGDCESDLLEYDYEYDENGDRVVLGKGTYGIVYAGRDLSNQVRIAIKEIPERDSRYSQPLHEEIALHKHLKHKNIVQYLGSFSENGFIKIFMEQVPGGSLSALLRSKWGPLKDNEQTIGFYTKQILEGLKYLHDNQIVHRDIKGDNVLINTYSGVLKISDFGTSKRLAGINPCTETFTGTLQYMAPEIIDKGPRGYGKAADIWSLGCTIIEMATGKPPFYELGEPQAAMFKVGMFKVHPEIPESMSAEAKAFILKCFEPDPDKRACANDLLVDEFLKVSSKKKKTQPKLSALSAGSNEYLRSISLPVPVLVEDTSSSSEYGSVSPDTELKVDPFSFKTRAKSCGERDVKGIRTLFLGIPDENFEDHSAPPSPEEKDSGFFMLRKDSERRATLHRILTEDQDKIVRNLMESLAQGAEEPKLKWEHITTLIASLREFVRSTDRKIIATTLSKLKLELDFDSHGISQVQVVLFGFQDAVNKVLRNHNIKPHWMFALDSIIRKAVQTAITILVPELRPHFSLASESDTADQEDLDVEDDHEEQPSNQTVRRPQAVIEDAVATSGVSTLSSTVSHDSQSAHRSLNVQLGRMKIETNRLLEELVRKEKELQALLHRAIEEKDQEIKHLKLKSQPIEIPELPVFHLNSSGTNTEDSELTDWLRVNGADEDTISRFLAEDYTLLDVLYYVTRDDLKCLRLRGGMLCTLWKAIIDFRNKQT
row,IC50,Compound
1,> 1000 nM,"2-(N,N-dimethylsulfamoyl)-N-(6-(4-isopropyl-4H-1,2,4-triazol-3-yl)pyridin-2-yl)isoindoline-5-carboxamide [Example 10]"
2,100 to 1000 nM,"CC(C)N1Cc2ccc(C(=O)Nc3cccc(-c4nnnn4C(C)C)n3)cc2C1=O [Example 1, 2-isopropyl-N-(6-(1-isopropyl-1H-tetrazol-5-yl)pyridin-2-yl)-3-oxoisoindoline-5-carboxamide]"
3,> 1000 nM,CC(C)n1nnnc1-c1cccc(NC(=O)c2ccc3c(c2)CN(C(=O)OCc2ccccc2)C3)n1 [Example 2]
4,10 to 100 nM,"CC(C)n1cnnc1-c1cccc(NC(=O)c2ccc3c(c2)CN(C(=O)OCc2ccccc2)C3)n1 [Example 3, benzyl 5-((6-(4-isopropyl-4H-1,2,4-triazol-3-yl)pyridin-2-yl)carbamoyl)isoindoline-2-carboxylate]"
5,100 to 1000 nM,"CC(C)n1cnnc1-c1cccc(NC(=O)c2ccc3c(c2)CN(S(=O)(=O)CCC(F)(F)F)C3)n1 [Example 4, N-(6-(4-isopropyl-4H-1,2,4-triazol-3-yl)pyridin-2-yl)-2-((3,3,3-trifluoropropyl)sulfonyl)isoindoline-5-carboxamide]"
6,100 to 1000 nM,"CCN(C)C(=O)N1Cc2ccc(C(=O)Nc3cccc(-c4nncn4C(C)C)n3)cc2C1 [Example 5, N2-ethyl-N5-(6-(4-isopropyl-4H-1,2,4-triazol-3-yl)pyridin-2-yl)-N2-methylisoindoline-2,5-dicarboxamide]"
7,100 to 1000 nM,COCCS(=O)(=O)N1Cc2ccc(C(=O)Nc3cccc(-c4nncn4C(C)C)n3)cc2C1 [Example 6]
8,100 to 1000 nM,"CCOC(=O)N1Cc2ccc(C(=O)Nc3cccc(-c4nncn4C(C)C)n3)cc2C1 [Example 7, ethyl 5-((6-(4-isopropyl-4H-1,2,4-triazol-3-yl)pyridin-2-yl)carbamoyl)isoindoline-2-carboxylate]"
9,> 1000 nM,CC(C)n1nnnc1-c1cccc(NC(=O)c2ccc3c(c2)CNC3)n1 [Example 8]
10,> 1000 nM,"CC(C)n1cnnc1-c1cccc(NC(=O)c2ccc3c(c2)CNC3)n1 [Example 9, N-(6-(4-isopropyl-4H-1,2,4-triazol-3-yl)pyridin-2-yl)isoindoline-5-carboxamide]"
11,100 to 1000 nM,CC(C)n1nnnc1-c1cccc(NC(=O)c2ccc3c(c2)CN(C(=O)N2CCCC2)C3)n1 [Example 11]
12,100 to 1000 nM,CC(C)n1nnnc1-c1cccc(NC(=O)c2ccc3c(c2)CN(C(=O)N(C)C)C3)n1 [Example 12]
13,> 1000 nM,CCN(C)C(=O)N1Cc2ccc(C(=O)Nc3cccc(-c4nnnn4C(C)C)n3)cc2C1 [Example 13]
14,> 1000 nM,CC(C)n1nnnc1-c1cccc(NC(=O)c2ccc3c(c2)CN(S(=O)(=O)CCC(F)(F)F)C3)n1 [Example 14]
15,> 1000 nM,COCCS(=O)(=O)N1Cc2ccc(C(=O)Nc3cccc(-c4nnnn4C(C)C)n3)cc2C1 [Example 15]
16,> 1000 nM,CCOC(=O)N1Cc2ccc(C(=O)Nc3cccc(-c4nnnn4C(C)C)n3)cc2C1 [Example 16]
17,10 to 100 nM,CC(C)n1cnnc1-c1cccc(NC(=O)c2ccc3c(c2)CN(C(=O)N2CCCC2)C3)n1 [Example 17]
18,10 to 100 nM,"CC(C)N1Cc2cnc(C(=O)Nc3cccc(-c4nnnn4[C@H](C)CO)n3)cc2C1=O [Example 18, (R)—N-(6-(1-(1-hydroxypropan-2-yl)-1H-tetrazol-5-yl)pyridin-2-yl)-2-isopropyl-1-oxo-2,3-dihydro-1H-pyrrolo[3,4-c]pyridine-6-carboxamide]"
19,10 to 100 nM,"CC(C)N1Cc2cnc(C(=O)Nc3cccc(-c4nncn4C(C)C)n3)cc2C1=O [Example 19, 2-isopropyl-N-(6-(4-isopropyl-4H-1,2,4-triazol-3-yl)pyridin-2-yl)-1-oxo-2,3-dihydro-1H-pyrrolo[3,4-c]pyridine-6-carboxamide]"
20,1 to 10 nM,"CC(C)n1cnnc1-c1cccc(NC(=O)c2cc3c(cc2F)CCN(S(=O)(=O)NC2CC2)C3)n1 [Example 20, 2-(N-cyclopropylsulfamoyl)-6-fluoro-N-(6-(4-isopropyl-4H-1,2,4-triazol-3-yl)pyridin-2-yl)-1,2,3,4-tetrahydroisoquinoline-7-carboxamide]"

# From patent US10450301B2, “Apoptosis signal-regulating kinase 1 inhibitors and methods of use thereof” (ENANTA PHARMACEUTICALS, INC., priority 2017, dated 2019)
